Assay results: the NIST ThermoML archive (doi:10.1021/je500395f)
± gives the expanded uncertainty stated by the source.

Conditions: Fluid (supercritical or subcritical phases), Coaxial cylinder method

A thermal conductivity (370.45 K, 3452 kPa) of 0.03558 ± 0.0016 W/m/K, a thermal conductivity (370.45 K, 3487 kPa) of 0.0359 ± 0.0016 W/m/K and a thermal conductivity (370.45 K, 3770 kPa) of 0.03805 ± 0.0017 W/m/K were found for `CCC` [propane] in this work. It also gave a thermal conductivity (370.45 K, 3856 kPa) of 0.03938 ± 0.0017 W/m/K, a thermal conductivity (370.45 K, 3986 kPa) of 0.04204 ± 0.0018 W/m/K and a thermal conductivity (370.45 K, 4042 kPa) of 0.04385 ± 0.0019 W/m/K. It also gave a thermal conductivity (370.45 K, 4105 kPa) of 0.04623 ± 0.0019 W/m/K, a thermal conductivity (370.45 K, 4170 kPa) of 0.05102 ± 0.0021 W/m/K and a thermal conductivity (370.45 K, 4190 kPa) of 0.05329 ± 0.0023 W/m/K. It also gave a thermal conductivity (370.45 K, 4200 kPa) of 0.055 ± 0.0024 W/m/K, a thermal conductivity (370.45 K, 4205 kPa) of 0.05577 ± 0.0024 W/m/K and a thermal conductivity (370.45 K, 4217 kPa) of 0.05902 ± 0.0026 W/m/K. For the same compound, the thermal conductivity (370.45 K, 4224 kPa) was 0.06133 ± 0.0026 W/m/K, the thermal conductivity (370.45 K, 4227 kPa) was 0.06249 ± 0.0028 W/m/K and the thermal conductivity (370.45 K, 4232 kPa) was 0.06383 ± 0.0029 W/m/K. For the same compound, the thermal conductivity (370.45 K, 4241 kPa) was 0.06723 ± 0.0033 W/m/K, the thermal conductivity (370.45 K, 4244 kPa) was 0.06856 ± 0.004 W/m/K and the thermal conductivity (370.45 K, 4245 kPa) was 0.06879 ± 0.0027 W/m/K. The thermal conductivity (370.45 K, 4250 kPa) was 0.07121 ± 0.0044 W/m/K, the thermal conductivity (370.45 K, 4255 kPa) was 0.0743 ± 0.0044 W/m/K and the thermal conductivity (370.45 K, 4260 kPa) was 0.0774 ± 0.0047 W/m/K. For the same compound, the thermal conductivity (370.45 K, 4265 kPa) was 0.08106 ± 0.0042 W/m/K, the thermal conductivity (370.45 K, 4270 kPa) was 0.08804 ± 0.0041 W/m/K and the thermal conductivity (370.45 K, 4275 kPa) was 0.09622 ± 0.0044 W/m/K. For the same compound, the thermal conductivity (370.45 K, 4280 kPa) was 0.1118 ± 0.005 W/m/K, the thermal conductivity (370.45 K, 4285 kPa) was 0.1252 ± 0.0054 W/m/K and the thermal conductivity (370.45 K, 4290 kPa) was 0.1423 ± 0.006 W/m/K. The thermal conductivity (370.45 K, 4295 kPa) was 0.156 ± 0.0065 W/m/K, the thermal conductivity (370.45 K, 4300 kPa) was 0.1452 ± 0.0058 W/m/K and the thermal conductivity (370.45 K, 4305 kPa) was 0.1291 ± 0.005 W/m/K. For the same compound, the thermal conductivity (370.45 K, 4310 kPa) was 0.1181 ± 0.0046 W/m/K, the thermal conductivity (370.45 K, 4315 kPa) was 0.1061 ± 0.0041 W/m/K and the thermal conductivity (370.45 K, 4320 kPa) was 0.101 ± 0.0039 W/m/K. It also gave a thermal conductivity (370.45 K, 4325 kPa) of 0.09628 ± 0.0036 W/m/K, a thermal conductivity (370.45 K, 4330 kPa) of 0.09201 ± 0.0035 W/m/K and a thermal conductivity (370.45 K, 4335 kPa) of 0.08809 ± 0.0035 W/m/K. For the same compound, the thermal conductivity (370.45 K, 4340 kPa) was 0.08122 ± 0.0036 W/m/K, the thermal conductivity (370.45 K, 4345 kPa) was 0.07814 ± 0.0038 W/m/K and the thermal conductivity (370.45 K, 4350 kPa) was 0.07669 ± 0.0033 W/m/K. For the same compound, the thermal conductivity (370.45 K, 4355 kPa) was 0.07528 ± 0.0032 W/m/K, the thermal conductivity (370.45 K, 4360 kPa) was 0.07393 ± 0.003 W/m/K and the thermal conductivity (370.45 K, 4377 kPa) was 0.07217 ± 0.0029 W/m/K. It also gave a thermal conductivity (370.45 K, 4400 kPa) of 0.07099 ± 0.0028 W/m/K, a thermal conductivity (370.45 K, 4420 kPa) of 0.07014 ± 0.0027 W/m/K and a thermal conductivity (370.45 K, 4560 kPa) of 0.06814 ± 0.0026 W/m/K. It also gave a thermal conductivity (370.45 K, 4580 kPa) of 0.06769 ± 0.0026 W/m/K, a thermal conductivity (370.45 K, 4800 kPa) of 0.06654 ± 0.0026 W/m/K and a thermal conductivity (370.45 K, 5000 kPa) of 0.06717 ± 0.0026 W/m/K. The thermal conductivity (370.45 K, 5500 kPa) was 0.06784 ± 0.0026 W/m/K, the thermal conductivity (370.45 K, 5550 kPa) was 0.06791 ± 0.0026 W/m/K and the thermal conductivity (370.45 K, 5760 kPa) was 0.06812 ± 0.0026 W/m/K. It also gave a thermal conductivity (370.45 K, 6000 kPa) of 0.06874 ± 0.0027 W/m/K, a thermal conductivity (370.45 K, 6500 kPa) of 0.06997 ± 0.0027 W/m/K and a thermal conductivity (370.45 K, 7000 kPa) of 0.07091 ± 0.0027 W/m/K. For the same compound, the thermal conductivity (370.45 K, 7500 kPa) was 0.07178 ± 0.0028 W/m/K, the thermal conductivity (370.45 K, 8000 kPa) was 0.07277 ± 0.0028 W/m/K and the thermal conductivity (370.45 K, 8500 kPa) was 0.07381 ± 0.0028 W/m/K. For the same compound, the thermal conductivity (370.45 K, 9000 kPa) was 0.07421 ± 0.0028 W/m/K, the thermal conductivity (370.45 K, 9500 kPa) was 0.07545 ± 0.0029 W/m/K and the thermal conductivity (370.45 K, 10000 kPa) was 0.07572 ± 0.0029 W/m/K. For the same compound, the thermal conductivity (370.45 K, 10500 kPa) was 0.07624 ± 0.0029 W/m/K, the thermal conductivity (370.45 K, 11000 kPa) was 0.07677 ± 0.0029 W/m/K and the thermal conductivity (370.45 K, 11200 kPa) was 0.07735 ± 0.0029 W/m/K. It also gave a thermal conductivity (370.45 K, 11300 kPa) of 0.07645 ± 0.0029 W/m/K, a thermal conductivity (370.45 K, 15100 kPa) of 0.08094 ± 0.0031 W/m/K and a thermal conductivity (371.05 K, 2710 kPa) of 0.03205 ± 0.0015 W/m/K. For the same compound, the thermal conductivity (371.05 K, 3100 kPa) was 0.03344 ± 0.0015 W/m/K, the thermal conductivity (371.05 K, 3375 kPa) was 0.03463 ± 0.0016 W/m/K and the thermal conductivity (371.05 K, 3655 kPa) was 0.03745 ± 0.0017 W/m/K. The thermal conductivity (371.05 K, 3900 kPa) was 0.04056 ± 0.0018 W/m/K, the thermal conductivity (371.05 K, 4095 kPa) was 0.04417 ± 0.0019 W/m/K and the thermal conductivity (371.05 K, 4155 kPa) was 0.04633 ± 0.002 W/m/K. The thermal conductivity (371.05 K, 4215 kPa) was 0.04915 ± 0.0021 W/m/K, the thermal conductivity (371.05 K, 4235 kPa) was 0.0519 ± 0.0022 W/m/K and the thermal conductivity (371.05 K, 4252 kPa) was 0.05394 ± 0.0024 W/m/K. It also gave a thermal conductivity (371.05 K, 4265 kPa) of 0.05669 ± 0.0026 W/m/K, a thermal conductivity (371.05 K, 4276 kPa) of 0.05854 ± 0.0028 W/m/K and a thermal conductivity (371.05 K, 4284 kPa) of 0.06121 ± 0.0033 W/m/K. The thermal conductivity (371.05 K, 4289 kPa) was 0.06357 ± 0.0037 W/m/K, the thermal conductivity (371.05 K, 4295 kPa) was 0.06602 ± 0.0041 W/m/K and the thermal conductivity (371.05 K, 4301 kPa) was 0.06867 ± 0.0039 W/m/K. The thermal conductivity (371.05 K, 4308 kPa) was 0.07332 ± 0.0036 W/m/K, the thermal conductivity (371.05 K, 4313 kPa) was 0.07659 ± 0.0034 W/m/K and the thermal conductivity (371.05 K, 4318 kPa) was 0.08141 ± 0.0035 W/m/K. The thermal conductivity (371.05 K, 4319 kPa) was 0.08406 ± 0.0036 W/m/K, the thermal conductivity (371.05 K, 4322 kPa) was 0.08836 ± 0.0037 W/m/K and the thermal conductivity (371.05 K, 4324 kPa) was 0.09107 ± 0.0037 W/m/K. For the same compound, the thermal conductivity (371.05 K, 4325 kPa) was 0.09395 ± 0.0037 W/m/K, the thermal conductivity (371.05 K, 4326 kPa) was 0.09568 ± 0.0038 W/m/K and the thermal conductivity (371.05 K, 4328 kPa) was 0.09934 ± 0.0039 W/m/K. It also gave a thermal conductivity (371.05 K, 4329 kPa) of 0.1013 ± 0.0039 W/m/K, a thermal conductivity (371.05 K, 4331 kPa) of 0.1054 ± 0.0041 W/m/K and a thermal conductivity (371.05 K, 4332 kPa) of 0.1075 ± 0.0041 W/m/K. The thermal conductivity (371.05 K, 4334 kPa) was 0.1104 ± 0.0042 W/m/K, the thermal conductivity (371.05 K, 4336 kPa) was 0.114 ± 0.0043 W/m/K and the thermal conductivity (371.05 K, 4337 kPa) was 0.1159 ± 0.0043 W/m/K. The thermal conductivity (371.05 K, 4338 kPa) was 0.1172 ± 0.0043 W/m/K, the thermal conductivity (371.05 K, 4339 kPa) was 0.1178 ± 0.0043 W/m/K and the thermal conductivity (371.05 K, 4340 kPa) was 0.1185 ± 0.0044 W/m/K. It also gave a thermal conductivity (371.05 K, 4342 kPa) of 0.1192 ± 0.0044 W/m/K, a thermal conductivity (371.05 K, 4343 kPa) of 0.1192 ± 0.0044 W/m/K and a thermal conductivity (371.05 K, 4344 kPa) of 0.1192 ± 0.0044 W/m/K. For the same compound, the thermal conductivity (371.05 K, 4345 kPa) was 0.1185 ± 0.0043 W/m/K, the thermal conductivity (371.05 K, 4346 kPa) was 0.1178 ± 0.0043 W/m/K and the thermal conductivity (371.05 K, 4347 kPa) was 0.1159 ± 0.0043 W/m/K. The thermal conductivity (371.05 K, 4349 kPa) was 0.1121 ± 0.0041 W/m/K, the thermal conductivity (371.05 K, 4351 kPa) was 0.1081 ± 0.004 W/m/K and the thermal conductivity (371.05 K, 4354 kPa) was 0.1028 ± 0.0038 W/m/K. The thermal conductivity (371.05 K, 4356 kPa) was 0.09934 ± 0.0037 W/m/K, the thermal conductivity (371.05 K, 4358 kPa) was 0.09657 ± 0.0036 W/m/K and the thermal conductivity (371.05 K, 4360 kPa) was 0.09395 ± 0.0035 W/m/K. For the same compound, the thermal conductivity (371.05 K, 4361 kPa) was 0.09311 ± 0.0035 W/m/K, the thermal conductivity (371.05 K, 4365 kPa) was 0.08989 ± 0.0034 W/m/K and the thermal conductivity (371.05 K, 4367 kPa) was 0.08836 ± 0.0033 W/m/K. It also gave a thermal conductivity (371.05 K, 4370 kPa) of 0.08616 ± 0.0032 W/m/K, a thermal conductivity (371.05 K, 4375 kPa) of 0.08406 ± 0.0032 W/m/K and a thermal conductivity (371.05 K, 4383 kPa) of 0.08141 ± 0.0031 W/m/K. For the same compound, the thermal conductivity (371.05 K, 4387 kPa) was 0.08015 ± 0.0031 W/m/K, the thermal conductivity (371.05 K, 4392 kPa) was 0.07865 ± 0.003 W/m/K and the thermal conductivity (371.05 K, 4396 kPa) was 0.07776 ± 0.003 W/m/K. For the same compound, the thermal conductivity (371.05 K, 4402 kPa) was 0.07633 ± 0.003 W/m/K, the thermal conductivity (371.05 K, 4408 kPa) was 0.07494 ± 0.003 W/m/K and the thermal conductivity (371.05 K, 4414 kPa) was 0.07363 ± 0.003 W/m/K. It also gave a thermal conductivity (371.05 K, 4420 kPa) of 0.07231 ± 0.003 W/m/K, a thermal conductivity (371.05 K, 4440 kPa) of 0.07105 ± 0.0028 W/m/K and a thermal conductivity (371.05 K, 4485 kPa) of 0.06921 ± 0.0027 W/m/K.
